# Measured values: ChEMBL document CHEMBL5500393, “Discovery and Optimization of Novel SaFabI Inhibitors as Specific Therapeutic Agents for MRSA Infection” (J Med Chem, 2024)
# Assays:
# [1] = biological target: T1, Enoyl-[acyl-carrier-protein] reductase [NADPH] FabI (Staphylococcus aureus) (UniProt Q6GI75); assay: Inhibition of N-terminal his 6 tagged Staphylococcus aureus Fabi (1 to […] residues) expressed in Escherichia coli BL21 at 10 uM incubated for 30 mins in presence of NADPH by fluorescence based microplate reader analysis relative to control
# T1 sequence (whole entry): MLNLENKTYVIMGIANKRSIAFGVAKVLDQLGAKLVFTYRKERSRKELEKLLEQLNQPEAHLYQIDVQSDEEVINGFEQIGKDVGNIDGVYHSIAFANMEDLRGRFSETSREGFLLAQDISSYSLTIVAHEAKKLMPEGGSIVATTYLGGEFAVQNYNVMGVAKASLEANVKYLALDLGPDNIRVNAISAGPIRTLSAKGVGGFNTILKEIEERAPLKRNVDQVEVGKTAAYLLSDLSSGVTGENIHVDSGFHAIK
# [2] = biological target: T1, Enoyl-[acyl-carrier-protein] reductase [NADPH] FabI (Staphylococcus aureus); assay: Inhibition of N-terminal his 6 tagged Staphylococcus aureus Fabi (1 to […] residues) expressed in Escherichia coli BL21 at 1 uM incubated for 30 mins in presence of NADPH by fluorescence based microplate reader analysis relative to control
# [3] = biological target: T2, Enoyl-[acyl-carrier-protein] reductase [NADPH] FabI (Staphylococcus aureus, UniProt Q6GI75); assay: Inhibition of N-terminal his 6 tagged Staphylococcus aureus Fabi (1 to […] residues) expressed in Escherichia coli BL21 incubated for 30 mins in presence of NADPH by fluorescence based microplate reader analysis
# T2 sequence (Q6GI75 whole entry): T1 sequence (whole entry)
# Staphylococcus aureus [4] = assay: Antimicrobial activity against […] Staphylococcus aureus ATCC33591 measured after 24 hrs by CLSI protocol based microdilution method; type: functional
# Staphylococcus aureus [5] = assay: Antimicrobial activity against […] Staphylococcus aureus ATCC43300 measured after 24 hrs by CLSI protocol based microdilution method; type: functional
# Staphylococcus aureus [6] = assay: Antimicrobial activity against […] Staphylococcus aureus USA300 measured after 24 hrs by CLSI protocol based microdilution method; type: functional
# Staphylococcus aureus [7] = assay: Antimicrobial activity against […] Staphylococcus aureus NRS271 measured after 24 hrs by CLSI protocol based microdilution method; type: functional
# Staphylococcus aureus [8] = assay: Antimicrobial activity against methicillin-susceptible Staphylococcus aureus ATCC29213 measured after 24 hrs by CLSI protocol based microdilution method; type: functional
# Staphylococcus aureus [9] = assay: Antimicrobial activity against methicillin-susceptible Staphylococcus aureus ATCC25923 measured after 24 hrs by CLSI protocol based microdilution method; type: functional
# Enterococcus faecium = assay: Antimicrobial activity against Enterococcus faecium ATCC19434 measured after 24 hrs by CLSI protocol based microdilution method; type: functional
# Enterococcus faecalis = assay: Antimicrobial activity against Enterococcus faecalis ATCC29212 measured after 24 hrs by CLSI protocol based microdilution method; type: functional
# Pseudomonas aeruginosa = assay: Antimicrobial activity against Pseudomonas aeruginosa PAO1 measured after 24 hrs by CLSI protocol based microdilution method; type: functional
# Escherichia coli = assay: Antimicrobial activity against Escherichia coli ATCC25922 measured after 24 hrs by CLSI protocol based microdilution method; type: functional
# Acinetobacter baumannii = assay: Antimicrobial activity against Acinetobacter baumannii ATCC19606 measured after 24 hrs by CLSI protocol based microdilution method; type: functional
# Candida albicans = assay: Antimicrobial activity against Candida albicans SC5314 measured after 48 hrs by CLSI protocol based microdilution method; type: functional
# [10] = Inhibition of N-terminal his 6 tagged Escherichia coli Fabi (1 to 789 residues) expressed in Escherichia coli BL21 incubated for 30 mins in presence of NADH by fluorescence based microplate reader analysis
# [11] = Inhibition of N-terminal his 6 tagged Acinetobacter baumannii Fabi (1 to 804 residues) expressed in Escherichia coli BL21 incubated for 30 mins in presence of NADH by fluorescence based microplate reader analysis
# Staphylococcus aureus [12] = assay: Antimicrobial activity against […] Staphylococcus aureus ATCC33591 assessed as reduction in RNA content measured after 4 hrs by microplate reader based analysis; type: functional
# [13] = Cytotoxicity against HEK293 cells assessed as survival rate at 400 uM measured after 48 hrs by CCK-8 method relative to control; type: toxicity, cell-based; details: human, read-out: Survival
# HepG2 [14] = assay: Cytotoxicity against human HepG2 cells assessed as survival rate at 400 uM measured after 48 hrs by CCK-8 method relative to control; type: functional; details: read-out: Survival
# [15] = Cytotoxicity against HEK293 cells assessed as survival rate at 800 uM measured after 48 hrs by CCK-8 method relative to control; type: toxicity, cell-based; details: human, read-out: Survival
# HepG2 [16] = assay: Cytotoxicity against human HepG2 cells assessed as survival rate at 800 uM measured after 48 hrs by CCK-8 method relative to control; type: functional; details: read-out: Survival
# [17] = Hemolytic activity in sheep erythrocytes assessed as hemolysis at 64 ug/ml incubated for 1 hr by microplate reader based analysis relative to control; type: toxicity, cell-based, Ovis aries, Erythrocyte; details: at 64 µg/mL, read-out: Activity
# [18] = Hemolytic activity in sheep erythrocytes assessed as hemolysis at 128 ug/ml incubated for 1 hr by microplate reader based analysis relative to control; type: toxicity, cell-based, Ovis aries, Erythrocyte; details: at 128 µg/mL, read-out: Activity
# [19] = Hemolytic activity in sheep erythrocytes assessed as hemolysis at 256 ug/ml incubated for 1 hr by microplate reader based analysis relative to control; type: toxicity, cell-based, Ovis aries, Erythrocyte; details: at 256 µg/mL, read-out: Activity
# [20] = Hemolytic activity in sheep erythrocytes assessed as hemolysis incubated for 1 hr by microplate reader based analysis; type: toxicity, cell-based, Ovis aries, Erythrocyte
# Staphylococcus aureus [21] = assay: Antimicrobial activity against Staphylococcus aureus measured after 24 hrs by CLSI protocol based microdilution method; type: functional
# [22] = Selectivity index, ratio of HC50 for sheep erythrocytes to MIC for Staphylococcus aureus; type: toxicity; details: read-out: Selectivity Index
Compound,inhibition [1] [%],inhibition [2] [%],IC50 [3] [nM],MIC (Staphylococcus aureus [4]) [µg/mL],MIC (Staphylococcus aureus [5]) [µg/mL],MIC (Staphylococcus aureus [6]) [µg/mL],MIC (Staphylococcus aureus [7]) [µg/mL],MIC (Staphylococcus aureus [8]) [µg/mL],MIC (Staphylococcus aureus [9]) [µg/mL],MIC (Enterococcus faecium) [µg/mL],MIC (Enterococcus faecalis) [µg/mL],MIC (Pseudomonas aeruginosa) [µg/mL],MIC (Escherichia coli) [µg/mL],MIC (Acinetobacter baumannii) [µg/mL],MIC (Candida albicans) [µg/mL],IC50 [10] [nM],IC50 [11] [nM],"viability at 48 h, 400 µM [13] [%]",viability at 400 µM (HepG2 [14]) [%],"viability at 48 h, 800 µM [15] [%]",further results
Cc1cccc(N2CC(c3nc4ccccc4n3C)CC2=O)c1 (configuration not stated),67.7,4.9,5700,> 32,> 32,> 32,> 32,> 32,> 32,> 32,> 32,> 32,> 32,> 32,> 32,,,,,,
Cn1c(C2CC(=O)N(c3cccc(Br)c3F)C2)nc2ccccc21 (configuration not stated),95.3,71.2,482,4,4,4,8,2,2,> 32,> 32,> 32,> 32,> 32,> 32,35.9,266,,,,
Cn1c(C2CC(=O)N(c3ccc(O)c(O)c3)C2)nc2ccccc21 (configuration not stated),70.4,10.7,5190,> 32,> 32,> 32,> 32,> 32,> 32,> 32,> 32,> 32,> 32,> 32,> 32,,,,,,
CO[C@H]1/C=C/O[C@@]2(C)Oc3c(C)c(O)c4c(O)c(c(/C=N/N5CCN(C)CC5)c(O)c4c3C2=O)NC(=O)/C(C)=C\C=C\[C@H](C)[C@H](O)[C@@H](C)[C@@H](O)[C@@H](C)[C@H](OC(C)=O)[C@@H]1C [RIFAMPIN],,,,,,,,,,,,,,,,,,,,,MIC (Staphylococcus aureus [12]): 0.016 µg/mL
Cc1c(Cl)cccc1N1CC(c2nc3ccccc3n2C)CC1=O (configuration not stated),99.1,76.8,429,2,2,4,4,2,2,> 32,> 32,> 32,> 32,> 32,> 32,35.9,266,> 70,> 70,> 65,"viability at 800 µM (HepG2 [16]): > 65%; hemolysis at 1 h, 64 ug/ml [17]: 3.8%; hemolysis at 1 h, 128 ug/ml [18]: 6.9%; hemolysis at 1 h, 256 ug/ml [19]: 13.2%; HC50 at 1 h [20]: > 256 µg/mL; MIC (Staphylococcus aureus [21]): 2 µg/mL; selectivity ratio [22]: > 64"
Cn1c(C2CC(=O)N(c3cccc(Br)c3Cl)C2)nc2ccccc21 (configuration not stated),97.4,80.3,331,2,2,1,4,2,1,> 32,> 32,> 32,> 32,> 32,> 32,35.9,266,> 70,> 70,> 75,"viability at 800 µM (HepG2 [16]): > 75%; hemolysis at 1 h, 64 ug/ml [17]: 2.8%; hemolysis at 1 h, 128 ug/ml [18]: 4.7%; hemolysis at 1 h, 256 ug/ml [19]: 10.6%; HC50 at 1 h [20]: > 256 µg/mL; MIC (Staphylococcus aureus [21]): 1 µg/mL; selectivity ratio [22]: > 64"
